From a melting point compilation (Tetko et al.; mined from patent text by program, amines drawn as free bases though some values may be those of a salt)

Row | Compound | melting point
1 | CCNC(=O)Nc1ccc(-c2sc3c(c2CN(C)CCOCCOCC)c(=O)n(-c2ccccc2)c(=O)n3Cc2c(F)cccc2F)cc1 | 230 to 233 °C
2 | COc1ccc(Cl)cc1C(=O)NCc1ccc(CC(=O)O)cc1 | 140 to 141 °C
3 | O=[N+]([O-])c1cc(-c2ccncc2)ccc1O | 210 to 212 °C
4 | CN(C)CC1=Cc2ccc(C(=O)Nc3ccc(Br)cc3)cc2CC1 | 175 to 179 °C
5 | O=C(O)CCCCC(O)CCCl (single isomer, unassigned; (-)) | 29 to 30 °C
6 | Cn1nc(-c2c(Cl)cc(C(F)(F)F)cc2Cl)cc1N | 161 to 163 °C
7 | Cc1cc(NCCO)c(N)c([N+](=O)[O-])c1 | 166 °C
8 | Nc1nnc(Sc2ccccc2)s1 | 202 to 203 °C
9 | CCOCC1C(C(=O)O)C1(C)C (stereo unspecified) | 40 to 40.5 °C
10 | CCCC1=C(C#N)C(c2ccccc2Br)c2c[nH]nc2N1 (stereo unspecified) | 237 °C
11 | CCC(Oc1c(Cl)cccc1Cl)C(=O)OC1CC(O)C=C2C=CC(C)C(CCC3CC(O)CC(=O)O3)C21 (mixture of isomers) | 107 to 109 °C
12 | O=C(Nc1cn(C2CCCCO2)nc1C(=O)NCCCOc1ccccc1)c1ccccn1 (stereo unspecified) | 106 to 107 °C
13 | N#CC1=C(Nc2ccccc2N)CSC1 | 163 °C
14 | CCOC(=O)c1cccc(C2COc3c(ccc(O)c3C)C2)c1 (stereo unspecified) | 143 to 144 °C
15 | Cc1c(C2(N(C)C)CCC(c3cccc(F)c3)(N(C)C)CC2)[nH]c2ccccc12 (stereo unspecified) | 126 to 132 °C
16 | COc1cc(CC(C)(C)NC(=O)c2ccc(Cl)nc2)cc2c1OC(C)(C)C2 | 118 to 119 °C
17 | CC1CCN(Cc2ccccc2)C1=Nc1ccccc1N1CCOCC1 (stereo unspecified) | 96 to 97 °C
18 | COc1ccc(C=CC(=O)c2cc(Oc3ccccc3)c(NS(C)(=O)=O)cc2O)cc1OC | 210 to 212 °C
19 | O=C1c2cccc(O)c2C(=O)c2ccsc21 | 199 to 200 °C
20 | CC(=O)CCC(=O)c1ccc(Cl)cc1 | 165 to 167 °C
21 | O=C(O)CCCCN1CCN(C2=Nc3ccccc3Oc3ccc(Cl)cc32)CC1 | 223 to 226 °C
22 | O=C(C=Cc1ccccc1)N1CCc2c([nH]c3ccccc23)C12CCC(c1cccc(F)c1)(N1CCC1)CC2 (stereo unspecified) | 120 to 126 °C
23 | O=C1c2c(OCc3ccccc3)cccc2-c2nn(CCN(CCO)Cc3ccccc3)c3ccc(Cl)c1c23 | 130 to 134 °C
24 | CC(C)c1cccc(C(C)C)c1NC(=O)CN1CCN(CCCSc2nc3ccccc3s2)CC1 | 113 to 115 °C

Row | Compound | melting point
25 | CCCOc1ccccc1-c1ccoc1C(=O)NNC(=O)c1ccc(O)c(C#N)c1 | 114 to 117 °C
26 | C=CC(=O)Oc1c(C(C)c2cc(C(C)(C)CC)cc(C(C)(C)CC)c2O)cc(C(C)(C)CC)cc1C(C)(C)CC (stereo unspecified) | 119 to 121 °C
27 | CC1(c2ccccc2)OC(C=Cc2cccnc2)=CC1=O (stereo unspecified) | 106 to 108 °C
28 | CN1CCC(O)(c2ccccc2Cc2ccccc2)C1 (stereo unspecified) | 108 to 109 °C
29 | C=CCOc1ccc([C@H]2CCN(C(=O)OC(C)(C)C)C[C@@H]2O)cc1 (racemic) | 113 °C
30 | COC(=O)c1ccc(OCCCCCCc2ccc3cc(OCc4ccccc4)c(OCc4ccccc4)cc3c2)cc1O | 129 to 131 °C
31 | CCC(OCCc1c2c3c(c(OCc4ccc(-c5ccccc5)cn4)ccc3n1Cc1ccc(Cl)cc1)SC(C)C2)C(=O)O (stereo unspecified) | 159 to 162 °C
32 | Cc1c(C(=O)CC(C)(C)C)c2ccccc2n1CCCNS(C)(=O)=O | 139 to 142 °C
33 | COc1ccc(-c2cc(SC)sc2-c2ccc(OC)cc2)cc1 | 106 to 108 °C
34 | COc1ccc(C(=O)Nc2ccccc2)cc1Nc1ccc(C2=NC(C)(C)CO2)cc1 | 221 to 222 °C
35 | CC(=O)OCC1OC(n2cc(Cc3ccc(C4CC4)cc3)c3c(F)cccc32)C(OC(C)=O)C(OC(C)=O)C1OC(C)=O (stereo unspecified) | 190 to 192 °C
36 | CCC(=O)OCC(=O)C1(OC(C)=O)CCC2C3CC(C)C4=CC(=O)CCC4(C)C3C(O)CC21C (stereo unspecified) | 99 to 103 °C
37 | O=C(O)CCc1ccc(O)c([N+](=O)[O-])c1 | 80 to 82 °C
38 | Cc1nc(-c2cc(C(C)(C)C)c3c(c2)C(C)(C)CO3)no1 | 81 to 82 °C
39 | Cc1nccn1N=Cc1cc(C(C)(C)C)c(O)c(C(C)(C)C)c1 | 206 to 207 °C
40 | COc1cccc2c1OCC(/C=C/C=C/C=C/C(=O)O)=C2 | 226 to 228 °C
41 | Cc1cc(C)c(N)cc1N | 170 to 172 °C
42 | CCOC(=O)c1cn(-c2ccccn2)c2occc2c1=O | 199 to 200 °C
43 | CNc1ccc2[nH]ncc2c1 | 144 to 146 °C
44 | COc1cc(OC)cc(C(=O)NCC23CC4CC(CC(C4)C2)C3)c1 | 130 to 133 °C
45 | COC(=O)c1ccc(Cc2cn(C)c3ccc(NC(=O)NC4CCCC4)cc23)c(OC)c1 | 210 to 212 °C
46 | CCCC(=O)c1cnc2c(OCCOCCO)cccc2c1Nc1ccc(F)cc1C | 144 to 145 °C
47 | CCCCCC(=O)NCCCC(=NNC(N)=S)c1ccccc1 | 125 to 127 °C
48 | O=C(O)CCSC1c2ccc(SCC(=O)O)cc2COc2ccc(OCc3ccc4ccc(Cl)cc4n3)cc21 (stereo unspecified) | 165 to 167 °C

Row | Compound | melting point
49 | COC(=O)C1Cc2c([nH]c3ccccc23)C(c2ccc(Cl)c(Cl)c2)N1 (stereo unspecified) | 90 to 92 °C
50 | c1ccc2[nH]c(Cn3ccnc3)nc2c1 | 198 to 200 °C
51 | CCOC(=O)COc1ccc(C(=O)[C@H](Cc2ccc(OC)cc2)NC(=O)OC(C)(C)C)cc1 | 95 to 97 °C
52 | Cc1c(-c2ccccc2)nn(N)c1OCCN1CCOCC1 | 96 °C
53 | NC(=O)c1nn(-c2ccc(S(N)(=O)=O)cc2)c2c1CSc1ccccc1-2 | 211 to 213 °C
54 | CCOc1cc(C2(C)CNC(=O)O2)ccc1OC (stereo unspecified) | 85 °C
55 | CC(C)c1nc(CN)n(C)c1Sc1cccc([N+](=O)[O-])c1 | 77 to 78 °C
56 | CC(C)(C)OC(=O)NC1CCCC1CO (stereo unspecified) | 107 to 108 °C
57 | CC1=C(C#N)S(=O)(=O)c2ccc(F)cc2N1 | 261 to 263 °C
58 | CCc1cccc(C)c1CNc1cc(Cn2ccnc2)cn2nc(C)nc12 | 158 °C
59 | S=C(Cc1ccncc1)N1CCOCC1 | 162 to 163 °C
60 | COC(=O)C1COc2ccccc2C1 (stereo unspecified) | 83 to 84 °C
61 | CSCC12CCC(=CF)C=C1CCC1C3CCC(=O)C3(C)CCC12 (stereo unspecified) | 146 to 147 °C
62 | CC(=O)CC(=O)N[C@H](CF)[C@H](O)c1ccc(S(C)(=O)=O)cc1 | 139 to 141 °C
63 | Cc1c[nH]c(-c2cnn(-c3c(Cl)cc(C(F)(F)F)cc3Cl)n2)n1 | 217 to 218 °C
64 | O=C(NC/C=C\COc1cc(CN2CCCCC2)ccn1)NC1CCCC1 | 121 to 124 °C
65 | COc1nc(C)c(N2CCCn3c2nc2c(Cl)ccc(C(OC(F)F)C(F)(F)F)c23)c(C)n1 (stereo unspecified) | 169 to 170 °C
66 | O=C(O)C(O)=Cc1ccc([N+](=O)[O-])s1 | 192 to 193 °C
67 | CCOC(=O)c1ccc(OCCCCCCCCCCC2c3c(c4ccccc4c4ccccc34)-c3c2c2ccccc2c2ccccc32)cc1 | 122 to 124 °C
68 | CCCCCCCCNC(=O)C1CC1c1ccc(N2CC(C(=O)O)CC2=O)cc1 (stereo unspecified) | 214 °C
69 | COc1cc(N)c(Cl)cc1C(=O)NC1CCN(CC2CCN(C(=O)c3ccco3)CC2)CC1 | 179 to 181 °C
70 | CS(=O)Cc1cc(=O)c2ccccc2o1 (stereo unspecified) | 142 to 146 °C
71 | Cc1ncc(CNC(=O)c2nc3n(c(=O)c2O)CCOC3(C)C)s1 | 245 °C
